For assay [1], the system named is ShPyV VP1. The experiment in a line: Derivatization of VP1 crystals with oligosaccharides and structure solution. In kind it is binding, sheep polyomavirus (ShPyV). The settings on record: crystals soaked with oligosaccharide (10 mM globo-N-tetraose). The text has this: The inventors presume that the Forssman disaccharide GalNAcα^5→3GalNAc^4, which promotes the hydrophobic interactions to VP1, is the main determinant for tropism. To corroborate this hypothesis, the inventors derivatized ShPyV VP1 crystals with globo-N-tetraose (Gb4), the glycan of the globoseries P antigen and molecular precursor of FP, and determined the structure of the complex (Table S2).
Additionally, the structural elucidation of the VP1-FP complex allows for the superposition of the epitopes of other aGalNAc antigens such as A (GalNAcα→3(Fucα→2)Gal-R) and Tn (GalNAcα→O-Ser/Thr) into the identified Forssman binding site.
Purified ShPyV VP1 was concentrated to 3.5 mg/ml. Crystallization droplets were set up comprising 1 µl protein and 1 µl reservoir solution (150 mM KSCN and 20 % (w/v) PEG 3,350). The droplets were equilibrated against the 500 µl reservoir using the hanging drop vapor diffusion method at 20 °C. For ligand derivatization, VP1 crystals were soaked in crystallization solution supplemented with the respective oligosaccharides (10 mM FA pentaose, 10 mM globo-N-tetraose, 5 mM FA pentaose + 20 mM 3'SLN, and 5 mM pentaose + 20 mM 6'SLN), at 20 °C for half an hour. Prior to flash freezing, crystals were transferred to soaking solutions supplemented with 20 % (v/v) MPD for cryo-protection. X-ray diffraction experiments were performed using the Swiss Light Source (SLS) beamline X06DA at the PSI (Villigen, Switzerland). Data were collected at a wavelength of 1 Å and an excitation time and angle of 0.1 s and 0.1° per image, respectively. All carbohydrates were purchased from Carbosynth, UK.
X-ray diffraction images were integrated and scaled using XDS software. For each data set, 2000-3000 reflections were reserved as a test set for structure validation. Phases were determined by molecular replacement using the native sheep polyomavirus VP1 structure as search model (PDB ID 6Y61) in PHASER (CCP4). […]

In assay [2] the target is ShPyV VP1. Nature of the assay: Crystallographic affinity determination (glycan dilution series in VP1 crystals). In kind it is binding, sheep polyomavirus (ShPyV). The settings on record: approximate; integrated FP electron density vs concentration, Michaelis-Menten approach; 10 mM down to 0.0195 mM FP; read-out: dissociation constant between VP1 and FP (crystallographic, Kdc). The text has this:
Due to the costliness of Forssman glycans, conventional biophysical affinity determination techniques were not applied. To still establish an approximate dissociation constant value, the inventors derivatize isomorphous ShPyV VP1 crystals with serially diluted Forssman pentaose (FP) solution and collect the diffraction data.
To approximate the affinity towards FA pentaose (FP) the inventors prepared a glycan dilution series in VP1 crystals, an approach that was successfully utilized in the past. [16,23]_VP1 crystals were grown as described above. The reference soaking solution (10 mM FP in 150 mM KSCN, 20 % (w/v) PEG 3,350 and 20 % (v/v) MPD) was diluted using 1:2 steps down to a final concentration of 0.0195 mM. Distinct crystals and equal soaking times were used for the parallel derivatization with FP at the different concentrations. Data collection was performed as described above. For processing, the unit cell constants of all data sets were treated as isomorphous. All diffraction intensities were scaled against the 10 mM FP reference data set using scaleit. A single structure solution was sufficient for all data sets. A VP1 model lacking all water and carbohydrate atoms, and a control tripeptide (AA 143-145) in all chains, was used for simulated annealing refinement (Phenix). […]

In assay [3] the test system is ShPyV VP1. The experiment in a line: Saturation-transfer difference (STD) NMR in solution. In kind it is binding, sheep polyomavirus (ShPyV). Particulars: 1 mM Forssman pentaose and 1 mM 6'SL in presence of 20 µM ShPyV VP1, 298 K. The text has this:
To assess whether the interaction of ShPyV VP1 to Forssman pentaose (FP), the glycan portion of Forssman glycolipid, also occurs in a more physiologic setting (i.e., in solution), the inventors conducted a saturation-transfer difference (STD) NMR experiment. […] Thereby, the protein resonances remain invisible. 59,60 The inventors recorded the STD-NMR resonances from a sample comprising VP1 and the oligosaccharides Forssman pentaose and 6sialyllactose (6'SL) as ligands, for which the inventors also provide reference spectra (Fig. 2B-C). […] Since excitation transfer heavily falls off with distance, VP1 is expected to contact an extensive portion of FP during the binding event.
All nuclear magnetic resonance (NMR) data were collected in a Bruker AVIII-600 MHz spectrometer equipped with a TXI-z probe head at 298 K. The inventors performed the experiments using 3 mm NMR tubes. Samples were provided in 99 % D2O-PBS containing 20 mM KH2PO4/K2HPO4 (pH 7.4) and 150 mM NaCl. Initially, ^1H reference spectra of isolate oligosaccharides samples (4 mM Forssman pentaose and 2 mM 6'SL, respectively) were recorded. Subsequently, the ^1H resonances of a sample comprising 1 mM Forssman pentaose and 1 mM 6'SL in presence of 20 µM ShPyV VP1 were collected. From the same sample, the saturation difference transfer (STD) NMR experiment was performed. […]

In assay [4] the target is human Gal-9 carbohydrate recognition domain (CRD) (Homo sapiens, UniProt O00182). Particulars: carbohydrate library screening, reference 62; cited from earlier work.
human Gal-9 carbohydrate recognition domain (CRD), sequence (O00182 1-148 limits assumed): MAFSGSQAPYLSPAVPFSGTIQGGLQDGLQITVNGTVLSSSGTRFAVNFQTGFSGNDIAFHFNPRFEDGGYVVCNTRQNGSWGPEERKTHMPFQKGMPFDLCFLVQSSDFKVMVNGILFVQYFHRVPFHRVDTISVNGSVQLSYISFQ
In assay [5] the test system is major capsid protein VP1 of sheep polyomavirus (ShPyV). Nature of the assay: Glycan microarray screening of recombinant VP1. In kind it is binding. The settings on record: broad spectrum glycan microarray of over 900 different carbohydrate structures. The text has this:
To identify potential attachment factors of sheep polyomavirus (ShPyV), the inventors subjected the recombinantly expressed major capsid protein VP1 to broad spectrum glycan microarray screening of over 900 different carbohydrate structures (Fig. 1A). […] Among the four strongest reliable signals in the glycan array, which are depicted in figure 1, two stem from glycans carrying α→6 linked sialic acids, which are 9-O-Acetyl-N-acetylneuraminic acid (Neu5,9Ac) and N-glycolyl-neuraminic acid (Neu5Gc).
Among all carbohydrates in the glycan array the Forssman glycolipid is the only probe that features the Forssman disaccharide GalNAcα→3GalNAcβ.

The test system of assay [6] is FORS+ cell binding by HPA. The experiment in a line: Inhibition assay of HPA binding to ovine blood cells. In kind it is cell-based, sheep. The settings on record: exceeding amounts of trisaccharide inhibitor (Fig. 5C). On the procedure: The inventors also examine the engagement of FORS- human erythrocytes by ShPyV VP1 and compare the results to HPA, which is a commonly used indicator for aberrant glycosylation in cancerogenesis. […] In contrast, FORS+ cell binding by HPA is inhibited by exceeding amounts of both F-tri and A-tri (Fig. 5C).
Erythrocytes from defibrinated blood were diluted into FACS buffer (1× PBS + 2 % FCS) to a density of 10×10^6 cells / mL. Samples of 1×10^6 cells were incubated with labeled protein at room temperature for 30 minutes with occasional shaking. Samples were then directly transferred to the flow cytometer (LSR II, BD Biosciences). Singlet cells were gated and the fluorescent population was captured at […]. M1/87-FITC (Santa Cruz Biotechnology) and HPA Alexa Fluor™ 488 conjugate (Invitrogen), respectively were used as references. Defibrinated sheep and bovine blood were purchased from TCS Biosciences Ltd and BioTrading Benelux B.V., respectively.

`CC(=O)NC1C(OC2C(O)C(CO)OC(OC3C(CO)OC(OC4C(CO)OC(O)C(O)C4O)C(O)C3O)C2O)OC(CO)C(O)C1O` (stereo not shown) [Gb4, globo-N-tetraose]: in the assay on ShPyV VP1 [1], the “ligand electron density / binding in derivatized VP1 crystals” value (“ligand electron density / binding” for short) is listed as “negligible binding affinity”.
In the case of `CC(=O)N[C@H]1[C@@H](O[C@H]2[C@@H](O)[C@@H](CO)O[C@@H](O[C@H]3[C@@H](O)[C@@H](CO)O[C@H](O[C@@H]4[C@H](O)[C@@H](O)[C@H](O[C@H]5[C@H](O)[C@@H](O)C(O)O[C@@H]5CO)O[C@@H]4CO)[C@@H]3O)[C@@H]2NC(C)=O)O[C@H](CO)[C@H](O)[C@@H]1O` (stereo partly shown) [FP, GalNAcα^5→3GalNAcβ^4→3Galα^3→4Galβ^2→4Glc^1], the Kd at ShPyV VP1 [2] was around 38.2 µM; in assay [4], 0.3 µM. In addition, the “STD-NMR binding to VP1” value in the assay with ShPyV VP1 [3] is recorded as “binding of FP to VP1”.
Consider GM1 pentaose, for which the “glycan array response (binding to VP1)” value in assay [5] is recorded as “relatively weak”.
As to “GalNAcα1→3GalNAcβ1→3Galα1→4Galβ1→4Glcβ1->1Cer [Forssman glycolipid]”, the “glycan array response (binding to VP1)” value in assay [5] is given as “surprisingly strong response”.
For GalNAcα→O-Ser/Thr [Tn antigen], the “glycan array response (binding to VP1)” value in assay [5] is “no significant binding”.
In the case of `CC(=O)N[C@H]1[C@@H](O[C@H]2[C@@H](O)[C@@H](CO)O[C@@H](O)[C@@H]2O[C@@H]2O[C@@H](C)[C@@H](O)[C@@H](O)[C@@H]2O)O[C@H](CO)[C@H](O)[C@@H]1O` [A antigen trisaccharide], in the assay with ShPyV VP1 [1], the “ligand electron density / binding” value is recorded as “unliganded VP1 pentamers”. Moreover, the “inhibition of FORS+ cell binding by HPA” value in assay [6] is given as “inhibited”.
With `CC(=O)N[C@H]1C(O)O[C@H](CO[C@@H]2O[C@H](CO)[C@H](O)[C@H](O)[C@H]2O)[C@H](O)[C@@H]1O` (stereo partly shown) [Galβ-6GalNAc disaccharide, Galβ-6GalNAc], the “glycan array response (binding to VP1)” value in assay [5] is given as “relatively strong signal”.
GalNAcα→3(Fucα→2)Gal-R [A antigen]: the “glycan array response (binding to VP1)” value in assay [5] was “no significant binding”.
On the same count and under the same terms, to `CC(=O)N[C@H]1[C@H]([C@H](O)[C@H](O)CO)O[C@](OC[C@H]2O[C@@H](O[C@H]3[C@H](O)[C@@H](NC(C)=O)C(O)O[C@@H]3CO)[C@H](O)[C@@H](O)[C@H]2O)(C(=O)O)C[C@@H]1O` (stereo partly shown) [6'sialyllactosamine] belongs “relatively weak”.
As to `CC(=O)N[C@H]1[C@H]([C@H](O)[C@H](O)CO)O[C@@](OC[C@H]2O[C@@H](O[C@H]3[C@H](O)[C@@H](O)[C@H](O)O[C@@H]3CO)[C@H](O)[C@@H](O)[C@H]2O)(C(=O)O)C[C@@H]1O` [6'SL, 6'sialyllactose], the “STD-NMR binding to VP1” value in the assay with ShPyV VP1 [3] is listed as “signal of a third methyl group in the STD-NMR spectrum manifests as the only transferred resonance”.
Turning to Galβ→3-Tn [T antigen], in the assay with ShPyV VP1 [1], the “ligand electron density / binding” value was “unliganded VP1 pentamers”.
As to GTic oligosaccharide, in assay [5], the “glycan array response (binding to VP1)” value was “relatively weak”.
For the compound GD3 tetraose, the “glycan array response (binding to VP1)” value in assay [5] is “relatively weak”.

Source of the values: patent EP4335865A1, “INTERACTION BETWEEN A GLYCOLIPID AND MAJOR CAPSID PROTEIN (VP1) OF SHEEP POLYOMAVIRUS AND, METHODS, KITS AND USES THEREOF” (Eberhard-Karls-Universität Tübingen, priority 2022, dated 2024).
